Laboratory results from patent US9309201B2, “Process for preparating ivabradine hydrochloride form IV and methods of treatment of disease using ivabradine hydrochloride form IV” (URQUIMA, S.A., priority 2011, dated 2016).
Counter-ions that a name gives are not always drawn.

Assay: Check for transformation of crystalline Form IV after tablet manufacture
Type: physicochemical
Procedure: All the components, with the exception of magnesium stearate and silica colloidal anhydrous, were mixed. Finally, silica colloidal anhydrous and magnesium stearate were added and mixed. The blend was compressed in an excentric tabletting machine.
All the components with the exception of magnesium stearate and silica colloidal anhydrous were mixed and granulated using ethanol as a granulating solvent. Then a wet calibration of the granules was performed. The obtained granules were dried followed by a dry calibration of the granules. Thereafter, silica colloidal anhydrous and magnesium stearate were added and mixed. The lubricated granulate was compressed in an eccentric tabletting machine.
Finally, tablets were coated using conventional coating agents until a weight increase of approximately 3%.

Q: What does the source list for `COc1cc2c(cc1OC)CC(=O)N(CCCN(C)C[C@H]1Cc3cc(OC)c(OC)cc31)CC2` [Form IV of ivabradine hydrochloride, ivabradine hydrochloride]?
A: transformation of the crystalline Form IV in tablets (Example 26 tablets, blend compressed directly in an excentric tabletting machine): absence of any transformation; transformation of the crystalline Form IV in film-coated tablets (Example 27 tablets, wet granulation with ethanol, drying, compression, coating to approximately 3% weight increase): absence of any transformation
